Source: US20250032506A1, “GLUCOCORTICOID RECEPTOR BLOCKADE WITH MIFEPRISTONE TO SENSITIZE PANCREATIC CANCER TO IMMUNOTHERAPY” (BOARD OF REGENTS, THE UNIVERSITY OF TEXAS SYSTEM, priority 2021, published 2025)

Tests used:
[1] = tested on: orthotopic HY24409 tumors; assay: Flow cytometric analysis and multiplex immunofluorescent staining of tumors or spleens from mice treated with mifepristone and dual ICB; assay type: in vivo, mouse
Experimental: Cancer Discov 10, 1374-1387 (2020). […] CyTOF data were analyzed by FlowJo and Cytobank.
Immunity 54, 1561-1577 e1567 (2021).

BXPC-3 cells = assay: qPCR and immunoblotting of PD-L1 and MHC-I in BXPC-3 cells; assay type: cell-based, human; conditions: MIFE 20 μM (qPCR) or indicated doses (immunoblot), 72 h
Text: The male PDAC cell lines HY24409 and HY24160 and the female PDAC cell line HY19636 were established from KPC mice (p48-Cre; Kras^LSL-G12D/+; Trp53^loxP/+) that were backcrossed to a C57BL/6 background (purity: ˜ 98%). (See Bardeesy, N., et al. supra). The human PDAC cell lines SU86.86 ([…]), SW1990 ([…]), BXPC-3 ([…]), Miapaca-2 ([…]), Capan-1 ([…]), ASPC-1 ([…]), Hs766T ([…]), Colo357/FG ([…]), L3.6PL ([…]), Panc28 ([…]), Capan-2 ([…]), CF-Pac-1 ([…]), Panc3 (sex unknown), Panc1 ([…]), Panc48 (sex unknown), and HPAC ([…]) were from Mien-Chie Hung's lab stock. The HY24409, HY24160, HY19636, SU86.86, SW1990, and Hs766T cell lines were cultured in RPMI 1640 (Corning, 10-041-CV) supplemented with 10% fetal bovine serum (FBS) (Gibco, 10438-034) and 1% penicillin/streptomycin (Sigma, P4333). The BXPC-3, Miapaca-2, Capan-1, ASPC-1, Colo357/FG, L3.6PL, Panc28, Capan-2, CF-Pac-1, Panc3, Panc1, Panc48, and HPAC cell lines were cultured in DMEM/F-12 (Corning, 10-092-CV) supplemented with 10% FBS and 1% penicillin/streptomycin. Cells were grown in a humidified incubator with 5% CO2 at 37° C., and low-passage stocks were maintained in a centralized lab cell bank. Short tandem repeat profiling and mycoplasma tests were done by the Cytogenetics and Cell Authentication Core at MD Anderson Cancer Center. […]

[2] = tested on: orthotopic HY24160 tumors
Experimental: Orthotopic pancreatic tumor size was determined by MRI. Subcutaneous tumor size was measured with a caliper. […] Animal body weight was measured throughout the study.

HY24409 cells [3] = assay: Chemokine array of conditioned medium; assay type: cell-based, mouse; conditions: mifepristone 20 μM, 48 hours
Experimental: Chemokine array was performed with conditioned medium from HY24409 cells treated with vehicle or mifepristone (20 μM, 48 hours) using the Proteome Profiler Mouse Chemokine Array Kit (R&D system, ARY020) following the manufacturer's instructions.

SW1990 cells = assay: qPCR, immunoblotting and flow cytometry of PD-L1 and MHC-I pathway expression in SW1990 cells; assay type: cell-based, human
Experimental: (§1) (See Bardeesy, N., et al. supra). The human PDAC cell lines SU86.86 ([…]), SW1990 ([…]), BXPC-3 ([…]), Miapaca-2 ([…]), Capan-1 ([…]), ASPC-1 ([…]), Hs766T ([…]), Colo357/FG ([…]), L3.6PL ([…]), Panc28 ([…]), Capan-2 ([…]), CF-Pac-1 ([…]), Panc3 (sex unknown), Panc1 ([…]), Panc48 (sex unknown), and HPAC ([…]) were from Mien-Chie Hung's lab stock. […] The BXPC-3, Miapaca-2, Capan-1, ASPC-1, Colo357/FG, L3.6PL, Panc28, Capan-2, CF-Pac-1, Panc3, Panc1, Panc48, and HPAC cell lines were cultured in DMEM/F-12 (Corning, 10-092-CV) supplemented with 10% FBS and 1% penicillin/streptomycin. Cells were grown in a humidified incubator with 5% CO2 at 37° C., and low-passage stocks were maintained in a centralized lab cell bank. Short tandem repeat profiling and mycoplasma tests were done by the Cytogenetics and Cell Authentication Core at MD Anderson Cancer Center.
Membranes were blocked with 10% non-fat milk in TBST and incubated with the primary antibody at 4° C. overnight, followed by incubation with the secondary antibody conjugated with horseradish peroxidase (HRP).

HY24409 cells [4] = assay: qPCR and flow cytometry of PD-L1, MHC-I and B2M in HY24409 cells; assay type: cell-based, mouse; conditions: MIFE 20 μM, 48 h
Experimental: as §1

[5] = relative to the control group, either with or without co-treatment with dual ICB
[6] = flow cytometry and qPCR, HY24160 tumors

## CC#C[C@]1(O)CC[C@H]2[C@@H]3CCC4=CC(=O)CCC4=C3[C@@H](c3ccc(N(C)C)cc3)C[C@@]21C [mifepristone]
[1]; flow cytometric analysis and multiplex immunofluorescent staining, HY24409 tumors
  tumor infiltration by CD8+ T cells and granzyme B+ CTLs: increase
[1]; [5]
  cell-surface MHC-I (H-2K^b) and B2M in tumor cells: increase
  cell-surface PD-L1 in tumor cells: decrease
BXPC-3 cells
  MHC-I at both mRNA and protein levels: significantly upregulated
  PD-L1 at both mRNA and protein levels: downregulated
[2]; C57BL/6 mice, orthotopic HY24160, CTL-dependent manner
  tumor growth: inhibited tumor growth
[2]; [6]
  MHC-I expression levels: upregulated
  expression levels of PD-L1 and known GR-activated genes: downregulated
[2]; mouse, in vivo
  body weight: without affecting body weight
  infiltration and activity of cytotoxic T cells: promoted
HY24409 cells [3]
  chemokines secreted by HY24409 cells: no chemokines that showed a change after mifepristone treatment were found
SW1990 cells; Western blot and flow cytometric analysis, MIFE 72 h
  PD-L1 protein: downregulated
SW1990 cells; Western blot and flow cytometry, MIFE 72 h
  MHC-I and B2M proteins: upregulation
SW1990 cells; qPCR, MIFE 20 μM, 72 h
  mRNA levels of components in the MHC-I pathway, including HLA-A, HLA-B, HLA-C, B2M, SEC61B, and SEC61G: increased
  mRNA levels of immune checkpoint ligands, including PD-L1, CD47, TDO, and SIGLEC15: decreased
HY24409 cells [4]; flow cytometry
  surface PD-L1 levels: decreased
  surface protein levels of MHC-I (H-2K^b) and B2M: increased
HY24409 cells [4]; qPCR
  MHC-I and B2M mRNA levels: increase
  PD-L1 mRNA levels: decrease
